Laboratory results from PMC12736958 (Pharmaceutics, 2025).
≈ marks a conversion by molar mass, not a printed value. Where two headings read alike, the source gives them in different places.

How the values were obtained:
MDCK cells = assay: cellular uptake study (LC-MS/MS of intracellular Cur); type: cell-based, canine; conditions: 10 min incubation, 5 μg Cur-equivalent (10 μg/mL)
Description: MDCK cells were seeded in 24-well plates and cultured following the procedures described in Cytotoxicity Assay section. The cells were treated with 500 µL of complete DMEM medium (pH 7.4) containing crystalline Cur, amorphous Cur, binary Cur/P188 ASD (1:8, w/w), or ternary Cur/P188/TW80 or Cur/P188/SLS ASDs (1:8:1, w/w/w), at Cur-equivalent dose of 5 µg per well. After 10 min of incubation, the treatment was terminated by immediate removal of the medium. The cells were then washed three times with ice-cold PBS, lysed with 200 µL of 0.1% SDS (assisted by sonication), and dissolved in methanol at a 1:2 (v/v) ratio. The total intracellular Cur content was quantified using LC-MS/MS. All experiments were performed in quadruplicate (n = 4).
Cur quantification in cellular and rat plasma samples was carried out using a SCIEX QTRAP® 5500 LC-MS/MS system coupled with a SCIEX ExionLC^TM AC system (AB SCIEX, Framingham, MA, USA).
Separation was achieved on an Acquity UPLC® BEH C18 column (100 × 2.1 mm, 1.7 μm; Waters) maintained at 40 °C. […]
Mass spectrometric detection was performed using an IonDrive^TM Turbo V ion (SCIEX, Framingham, MA, USA) source operating in negative electrospray ionization (ESI) mode. Quantification was conducted via multiple reaction monitoring (MRM) at m/z 367.1→133.9 for Cur, and m/z 294.1→250.0 for diclofenac sodium (IS). […]

[1] = equilibrium solubility of crystalline Cur in excipient solutions; type: physicochemical; conditions: read-out: equilibrium solubility (Cur con.)
Description: Excess crystalline Cur was suspended in each solution, vortexed (1 min), sonicated (10 min), and incubated (37 °C, 24 h). After incubation, suspensions were filtered (0.22 μm), and Cur concentration in the filtrate was quantified using HPLC/UV-Vis (HPLC/UV-Vis Method section). All experiments were performed in quadruplicate (n = 4).
Cur content in in vitro dissolution samples was quantified using a Waters 2695 Alliance HPLC system (Waters Corporation, Milford, MA, USA) equipped with a Waters 2998 photodiode array (PDA) detector. Separation was performed on an XBridge® C18 column (4.6 × 250 mm, 5.0 μm; Waters) maintained at 25 °C. The mobile phase, composed of water and methanol (80:20, v/v), was delivered isocratically at a flow rate of 1.0 mL/min. The injection volume was 10 μL, and detection was performed at 430 nm, and Cur eluted at approximately 4.80 min. […] All data were acquired in triplicate (n = 3) and processed using Empower®3 Software (Waters).

COc1cc(/C=C/C(=O)CC(=O)/C=C/c2ccc(O)c(OC)c2)ccc1O [Crystalline Cur, Curcumin]
cellular uptake (% of the administered dose) (MDCK cells): 0.2%
solubility thermodynamic at 24 h ([1]; aqueous P188/SLS solution (8 mg/mL + 1 mg/mL), pH 7, aqueous with cosolvent or surfactant or cyclodextrin, thermodynamic from solid, P188/SLS 8 mg/mL + 1 mg/mL in water, 37 °C): 8.5 µg/mL
solubility thermodynamic at 24 h ([1]; aqueous P188/TW80 solution (8 mg/mL + 1 mg/mL), pH 7, aqueous with cosolvent or surfactant or cyclodextrin, thermodynamic from solid, P188/TW80 8 mg/mL + 1 mg/mL in water, 37 °C): 10.3 µg/mL
solubility thermodynamic at 24 h ([1]; aqueous P188 solution (8 mg/mL), pH 7, P188 8 mg/mL in water, 37 °C): < 0.1 µg/mL
solubility thermodynamic at 24 h ([1]; aqueous SLS solution (1 mg/mL), pH 7, SLS 1 mg/mL in water, 37 °C): < 0.1 µg/mL
solubility thermodynamic at 24 h ([1]; aqueous TW80 solution (1 mg/mL), pH 7, aqueous with cosolvent or surfactant or cyclodextrin, thermodynamic from solid, TW80 1 mg/mL in water, 37 °C): 9.1 µg/mL (≈ 24.7 µM)
solubility thermodynamic at 24 h ([1]; thermodynamic from solid, pure water, pH 7.0, 37 °C, filtered 0.22 μm): < 0.1 µg/mL
